{
  "source": "patent US8252326B2",
  "about": "“Self-microemulsifying dosage forms of low solubility active ingredients such as co-enzyme Q10” (Catalent Australia Pty Ltd., priority 2005, dated 2012)",
  "key": {"[1]": {"experiment": "Solubility of coenzyme Q10 in oils, surfactants and co-surfactants", "format": "physicochemical", "protocol": "To determine suitable excipient systems for actives, solubility studies were carried out on a variety of constituents of the inventive SMEDDS formulations. The solubility of Q10 in various oils, surfactants and co-surfactants were determined by placing an excess of the Q10 (approximately 2.5 g) in 22.5 g of the vehicle in screw capped glass bottles and heating the mixture to 55° C. in a water bath to facilitate the solubilization. Mixtures were equilibrated at room temperature for 24 hours and then filtered through 0.45 μm membrane filter to separate the undissolved drug. One gram of the filtered liquid mixtures were then weighed and diluted with cyclohexane and quantified by UV/Visible Spectrometry. Lemon oil and isopropyl myristate provided higher solubility than other oils. Although not limited to a theory of operation, it is believed that the oils form a distinct core in the interior of the surfactant aggregate when being dispersed in water, resulting in enhanced solubilizing capacity of the oils with improved drug loading capabilities of the emulsion."}, "[2]": {"settings": "cited from earlier work"}},
  "data": [
    {"smiles": "COC1=C(OC)C(=O)C(C/C=C(\\C)CC/C=C(\\C)CC/C=C(\\C)CC/C=C(\\C)CC/C=C(\\C)CC/C=C(\\C)CC/C=C(\\C)CC/C=C(\\C)CC/C=C(\\C)CCC=C(C)C)=C(C)C1=O", "note": "[Coenzyme Q10]", "values": [
      {"measurement": "Solubility of coenzyme Q10 (% w/w)", "setting": "[1]; in Acetylated monoglycerides, room temperature 24 hours", "result": 7.5, "unit": "% w/w"},
      {"measurement": "Solubility of coenzyme Q10 (% w/w)", "setting": "[1]; in Capmul MCM C8, room temperature 24 hours", "result": 1.50, "unit": "% w/w"},
      {"measurement": "Solubility of coenzyme Q10 (% w/w)", "setting": "[1]; in Glyceryl mono-oleate, room temperature 24 hours", "result": 2.41, "unit": "% w/w"},
      {"measurement": "Solubility of coenzyme Q10 (% w/w)", "setting": "[1]; in Isopropyl myristate, room temperature 24 hours", "result": 11.2, "unit": "% w/w"},
      {"measurement": "Solubility of coenzyme Q10 (% w/w)", "setting": "[1]; in Labrafac Hydro WL1219, room temperature 24 hours", "result": 3.17, "unit": "% w/w"},
      {"measurement": "Solubility of coenzyme Q10 (% w/w)", "setting": "[1]; in Labrafil M 1944, room temperature 24 hours", "result": 5.91, "unit": "% w/w"},
      {"measurement": "Solubility of coenzyme Q10 (% w/w)", "setting": "[1]; in Labrafil M 2125, room temperature 24 hours", "result": 5.35, "unit": "% w/w"},
      {"measurement": "Solubility of coenzyme Q10 (% w/w)", "setting": "[1]; in Lauroglyco 1 FCC, room temperature 24 hours", "result": 3.05, "unit": "% w/w"},
      {"measurement": "Solubility of coenzyme Q10 (% w/w)", "setting": "[1]; in Lauroglyco 190, room temperature 24 hours", "result": 3.06, "unit": "% w/w"},
      {"measurement": "Solubility of coenzyme Q10 (% w/w)", "setting": "[1]; in Lemon oil, equilibrated at room temperature 24 hours, 0.45 μm filtered", "result": 24.3, "unit": "% w/w"},
      {"measurement": "Solubility of coenzyme Q10 (% w/w)", "setting": "[1]; in Medium chain triglycerides, room temperature 24 hours", "result": 3.74, "unit": "% w/w"},
      {"measurement": "Solubility of coenzyme Q10 (% w/w)", "setting": "[1]; in Oleic acid, room temperature 24 hours", "result": 3.80, "unit": "% w/w"},
      {"measurement": "Solubility of coenzyme Q10 (% w/w)", "setting": "[1]; in PEG 35 Castor oil, room temperature 24 hours", "result": 2.34, "unit": "% w/w"},
      {"measurement": "Solubility of coenzyme Q10 (% w/w)", "setting": "[1]; in Polysorbate 80, room temperature 24 hours", "result": 0.370, "unit": "% w/w"},
      {"measurement": "Solubility of coenzyme Q10 (% w/w)", "setting": "[1]; in Polysorbate 85, room temperature 24 hours", "result": 1.57, "unit": "% w/w"},
      {"measurement": "Solubility of coenzyme Q10 (% w/w)", "setting": "[1]; in Span 80, room temperature 24 hours", "result": 3.24, "unit": "% w/w"},
      {"measurement": "Solubility of coenzyme Q10 (% w/w)", "setting": "[1]; in Transcutol P, room temperature 24 hours", "result": 0.260, "unit": "% w/w"},
      {"measurement": "Solubility in water", "setting": "[2]", "result": "practically insoluble in water"}
    ]}
  ]
}
